Assay: SMIP encapsulation efficiency (UPLC of pellet and supernatant)
Format: physicochemical
Conditions: RG 502H 2% w/v nanoparticles, theoretical SMIP loading 2% w/w of PLG
Protocol: Nanoparticles with a theoretical SMIP loading level of 2% w/w of PLG were prepared for the SMIP encapsulation study. Both water (pH 5.5-6) and Tris EDTA buffer (pH 7-8) were used for the aqueous phases. […] Since, a basic SMIP is being employed here, Tris EDTA buffer was used for the aqueous phase, which maintained the pH of the suspension between 7 and 8.
The encapsulation efficiency was calculated as a ratio of mass of SMIP in the nanoparticles to the mass of SMIP used in the formulation. More particularly, the nanoparticle suspension was aliquoted (1 ml) into 2 vials and centrifuged at 16000 RPM for 30 minutes. The amount of SMIP in the supernatant was determined using an ultra performance liquid chromatography (Waters Acquity UPLC, Milford, Mass., USA) assay. The pellet was washed three times and the amount of SMIP in the pellet was determined after hydrolyzing the pellet with sodium hydroxide, followed by neutralization with hydrochloric acid. Encapsulation efficiency was calculated as ratio of the SMIP in the pellet to the total SMIP content of the suspension. Mass balance was achieved by hydrolyzing 1 ml of the suspension and determining the total SMIP content in 1 ml of the suspension.

encapsulation efficiency (Tris EDTA buffer (pH 7-8) as aqueous phase): greater than 90% | encapsulation efficiency (water (pH 5.5-6) as aqueous phase): 40-50%
Structure (SMILES): CCCN(C)c1nc2c(N)nc3ccccc3c2n1CC(C)(C)O [SMIP]

— patent US9393295B2, “Nanoparticles for use in pharmaceutical compositions” (Novartis AG, priority 2008, dated 2016)
